Measured values as given in ChEMBL document CHEMBL4308841, “Synthesis, in vitro antiproliferative activity, and kinase inhibitory effects of pyrazole-containing diarylureas and diarylamides” (Eur J Med Chem, 2018).

Columns and labels:
SW-620 = assay: Growth inhibition of human SW620 cells assessed as cell growth at 100 uM incubated for 48 hrs by sulforhodamine B assay relative to control; assay type: functional; details: SW-620, 48 h, read-out: Activity
HT-29 [1] = assay: Growth inhibition of human HT-29 cells assessed as cell growth at 100 uM incubated for 48 hrs by sulforhodamine B assay relative to control; assay type: functional; details: HT-29, 48 h, read-out: Activity
HCC 2998 [2] = assay: Growth inhibition of human HCC2998 cells assessed as cell growth at 0.1 uM incubated for 48 hrs by sulforhodamine B assay relative to control; assay type: functional; details: HCC 2998, 48 h, read-out: Activity
786-0 [3] = assay: Growth inhibition of human 786-0 cells assessed as cell growth at 0.01 uM incubated for 48 hrs by sulforhodamine B assay relative to control; assay type: functional; details: 786-0, 48 h, read-out: Activity
PC-3 = assay: Growth inhibition of human PC3 cells assessed as cell growth at 100 uM incubated for 48 hrs by sulforhodamine B assay relative to control; assay type: functional; details: PC-3, 48 h, read-out: Activity
ACHN = assay: Growth inhibition of human ACHN cells assessed as cell growth at 100 uM incubated for 48 hrs by sulforhodamine B assay relative to control; assay type: functional; details: read-out: Activity
NCI-H23 = assay: Growth inhibition of human NCI-H23 cells assessed as cell growth at 0.1 uM incubated for 48 hrs by sulforhodamine B assay relative to control; assay type: functional; details: NCI-H23, 48 h, read-out: Activity
A498 = assay: Growth inhibition of human A498 cells assessed as cell growth at 0.1 uM incubated for 48 hrs by sulforhodamine B assay relative to control; assay type: functional; details: A498, 48 h, read-out: Activity
HCC 2998 [4] = assay: Growth inhibition of human HCC2998 cells incubated for 48 hrs by sulforhodamine B assay; assay type: functional, cell-based; details: HCC 2998, 48 h
786-0 [5] = assay: Growth inhibition of human 786-0 cells assessed as cell growth at 1 uM incubated for 48 hrs by sulforhodamine B assay relative to control; assay type: functional; details: 786-0, 48 h, read-out: Activity
SK-MEL-5 = assay: Growth inhibition of human SK-MEL-5 cells assessed as cell growth at 1 uM incubated for 48 hrs by sulforhodamine B assay relative to control; assay type: functional; details: SK-MEL-5, 48 h, read-out: Activity
SK-OV-3 = assay: Growth inhibition of human SKOV3 cells assessed as cell growth at 0.1 uM incubated for 48 hrs by sulforhodamine B assay relative to control; assay type: functional; details: SK-OV-3, 48 h, read-out: Activity
COLO 205 = assay: Growth inhibition of human COLO205 cells assessed as cell growth at 100 uM incubated for 48 hrs by sulforhodamine B assay relative to control; assay type: functional; details: COLO 205, 48 h, read-out: Activity
Malme-3M = assay: Growth inhibition of human MALME-3M cells assessed as cell growth at 1 uM incubated for 48 hrs by sulforhodamine B assay relative to control; assay type: functional; details: read-out: Activity
UACC-62 = assay: Growth inhibition of human UACC62 cells incubated for 48 hrs by sulforhodamine B assay; assay type: functional, cell-based; details: UACC-62, 48 h
SF-268 = assay: Growth inhibition of human SF268 cells incubated for 48 hrs by sulforhodamine B assay; assay type: functional, cell-based; details: SF-268, 48 h
UACC-257 = assay: Growth inhibition of human UACC257 cells assessed as cell growth at 100 uM incubated for 48 hrs by sulforhodamine B assay relative to control; assay type: functional; details: UACC-257, 48 h, read-out: Activity
786-0 [6] = assay: Growth inhibition of human 786-0 cells assessed as cell growth at 100 uM incubated for 48 hrs by sulforhodamine B assay relative to control; assay type: functional; details: 786-0, 48 h, read-out: Activity
SF-295 = assay: Growth inhibition of human SF295 cells assessed as cell growth at 0.1 uM incubated for 48 hrs by sulforhodamine B assay relative to control; assay type: functional; details: SF-295, 48 h, read-out: Activity
SN12C = assay: Growth inhibition of human SN12C cells incubated for 48 hrs by sulforhodamine B assay; assay type: functional, cell-based
SNB-75 = assay: Growth inhibition of human SNB75 cells assessed as cell growth at 0.01 uM incubated for 48 hrs by sulforhodamine B assay relative to control; assay type: functional; details: SNB-75, 48 h, read-out: Activity
NCI/ADR-RES = assay: Growth inhibition of human NCI/ADR-RES cells assessed as cell growth at 100 uM incubated for 48 hrs by sulforhodamine B assay relative to control; assay type: functional; details: read-out: Activity
LOX IMVI = assay: Growth inhibition of human LOXIMVI cells assessed as cell growth at 0.1 uM incubated for 48 hrs by sulforhodamine B assay relative to control; assay type: functional; details: read-out: Activity
NCI-H522 = assay: Growth inhibition of human NCI-H522 cells incubated for 48 hrs by sulforhodamine B assay; assay type: functional, cell-based; details: NCI-H522, 48 h
U-251 = assay: Growth inhibition of human U251 cells incubated for 48 hrs by sulforhodamine B assay; assay type: functional, cell-based; details: U-251, 48 h
HCT-15 = assay: Growth inhibition of human HCT15 cells incubated for 48 hrs by sulforhodamine B assay; assay type: functional, cell-based; details: HCT-15, 48 h
HT-29 [7] = assay: Growth inhibition of human HT-29 cells assessed as cell growth at 10 uM incubated for 48 hrs by sulforhodamine B assay relative to control; assay type: functional; details: HT-29, 48 h, read-out: Activity
RPMI-8226 = assay: Growth inhibition of human RPMI8226 cells incubated for 48 hrs by sulforhodamine B assay; assay type: functional, cell-based; details: RPMI-8226, 48 h
[8] = read-out: LC50 (the source's name)
[9] = read-out: pLC50 (the source's name) (converted)

O=C(Nc1cccc(-n2cc(-c3ccncc3)c(-c3cc(O)cc(Cl)c3)n2)c1)Nc1ccc(Cl)c(C(F)(F)F)c1
growth at 100 µM (SW-620): -58%
growth at 100 µM (HT-29 [1]): -88%
growth at 0.1 µM (HCC 2998 [2]): 97%
growth at 0.01 µM (786-0 [3]): 98%
growth at 100 µM (PC-3): -83%
growth at 100 µM (ACHN): -25%
growth at 0.1 µM (NCI-H23): 91%
growth at 0.1 µM (A498): 50%
GI50 (HCC 2998 [4]; read-out: GI50): 3.93 µM
CC50 (HCC 2998 [4]; [8]): 43 µM
TGI (HCC 2998 [4]; read-out: TGI): 13.4 µM
GI50 (HCC 2998 [4]; read-out: pGI50 (converted)): 3.89 µM
CC50 (HCC 2998 [4]; [9]): 42.7 µM
TGI (HCC 2998 [4]; read-out: pTGI (converted)): 13.5 µM
growth at 1 µM (786-0 [5]): 84%
growth at 1 µM (SK-MEL-5): 90%
growth at 0.1 µM (SK-OV-3): 104%
growth at 100 µM (COLO 205): -77%
growth at 1 µM (Malme-3M): 94%
IC50 (UACC-62): 2.08 µM
GI50 (UACC-62; read-out: GI50): 2 µM
CC50 (UACC-62; [8]): 91.9 µM
TGI (UACC-62; read-out: TGI): 43.8 µM
GI50 (UACC-62; read-out: pGI50 (converted)): 2.09 µM
CC50 (UACC-62; [9]): 9.12 µM
TGI (UACC-62; read-out: pTGI (converted)): 4.37 µM
GI50 (SF-268; read-out: GI50): 3.1 µM
CC50 (SF-268; [8]): > 100 µM
TGI (SF-268; read-out: TGI): 18 µM
GI50 (SF-268; read-out: pGI50 (converted)): 3.09 µM
CC50 (SF-268; [9]): > 100 µM
TGI (SF-268; read-out: pTGI (converted)): 15.8 µM
growth at 100 µM (UACC-257): -96%
growth at 100 µM (786-0 [6]): -50%
growth at 0.1 µM (SF-295): 93%
GI50 (SN12C; read-out: GI50): 3.44 µM
LC50 (SN12C; read-out: LC50): > 100 µM
TGI (SN12C; read-out: TGI): 17.2 µM
GI50 (SN12C; read-out: pGI50 (converted)): 3.55 µM
LC50 (SN12C; read-out: pLC50 (converted)): > 100 µM
TGI (SN12C; read-out: pTGI (converted)): 17 µM
growth at 0.01 µM (SNB-75): 53%
growth at 100 µM (NCI/ADR-RES): -15%
growth at 0.1 µM (LOX IMVI): 95%
GI50 (NCI-H522; read-out: GI50): 1.32 µM
CC50 (NCI-H522; [8]): 19 µM
TGI (NCI-H522; read-out: TGI): 44.8 µM
GI50 (NCI-H522; read-out: pGI50 (converted)): 1.32 µM
CC50 (NCI-H522; [9]): 19.1 µM
TGI (NCI-H522; read-out: pTGI (converted)): 4.47 µM
IC50 (U-251): 1.72 µM
GI50 (U-251; read-out: GI50): 1.72 µM
CC50 (U-251; [8]): 77.5 µM
TGI (U-251; read-out: TGI): 30 µM
GI50 (U-251; read-out: pGI50 (converted)): 1.74 µM
CC50 (U-251; [9]): 7.76 µM
TGI (U-251; read-out: pTGI (converted)): 3.63 µM
GI50 (HCT-15; read-out: GI50): 2.21 µM
CC50 (HCT-15; [8]): 50.6 µM
TGI (HCT-15; read-out: TGI): 60.1 µM
GI50 (HCT-15; read-out: pGI50 (converted)): 2.82 µM
CC50 (HCT-15; [9]): 60.3 µM
TGI (HCT-15; read-out: pTGI (converted)): 6.03 µM
growth at 10 µM (HT-29 [7]): 35.3%
IC50 (RPMI-8226): 1.95 µM
GI50 (RPMI-8226; read-out: GI50): 1.96 µM
CC50 (RPMI-8226; [8]): > 100 µM
TGI (RPMI-8226; read-out: TGI): 50 µM
GI50 (RPMI-8226; read-out: pGI50 (converted)): 1.95 µM
CC50 (RPMI-8226; [9]): > 100 µM
TGI (RPMI-8226; read-out: pTGI (converted)): 5.13 µM
